In patent US6369109B1, “Betulinic acid and derivatives thereof useful for the treatment of neuroectodermal tumor” (Deutsches Krebsforschungszentrum Stiftung des Offentlichen …, priority 1998, dated 2002):
“Also recorded” adds a separate entry of the source. Residues, ends and D or L forms follow the SMILES beside them. *: point of attachment. Cbz = O=C(OCc1ccccc1)*; CH2F = FC*

How the values were obtained:
[1] = tested on: SH-EP neuroblastoma cells; experiment: Specific apoptosis, FACS analysis of propidium iodide-stained nuclei; type: cell-based, human; conditions: for effect of CD95 blockage by F(ab′)2 anti-APO-1 on drug-induced apoptosis: 10 μg/ml antibody fragments 1 h before drug, 10 μg/ml betulinic acid, 50 μg/ml VP-16, 10 μg/ml cisplatinum, 0.5 μg/ml doxorubicin, 72 h, FIG. 3B
Experimental: Quantification of DNA fragmentation was performed by FACS analysis of propidium iodide stained nuclei as described in Nicoletti et al, 1991, J. Immunol. Methods. 139: 271-279. Cells were analyzed for DNA content by flow. cytometry (FACScan, Becton Dickinson, Heidelberg, Germany) using CELLQuest software. Early apoptotic changes were identified by staining with biotinylated annexin V (Bender Med Systems, Vienna, Austria) following the manufacturer's instructions. Annexin V binds to exposed phosphatidylserine on the surface of apoptotic cells. Koopman et al, 1994, Blood. 84:1415-1420. Cells were analyzed by flow cytometry (FAC-Scan. Becton Dickinson) using CELLQuest software.
Cells were treated with 10 μg/ml betulinic acid for 72 h. Apoptosis was assessed by FACS analysis of propidium iodide-stained nuclei. Percentage of specific apoptosis was calculated as follows: experimental apoptosis (%) −spontaneous apoptosis in medium (%)/[100%−spontaneous apoptosis in medium (%)]×100%. […]
Cells were incubated for indicated times with doxorubicin, betulinic acid or anti-APO-1 and harvested by trypsinization using 0.05% trypsin and 0.02% EDTA without Ca^2+and Mg^2+(Life Technologies, Inc.). Quantification of DNA fragmentation was performed by FACS analysis of propidium iodide stained nuclei as previously described in Nicoletti et al., J. ImmunoL Methods 139:271-279, using CELLQuest software (Becton Dickinson, Heidelberg, Germany).
SHEP cells transfected with Bcl-2 or BCl-XL or a neomycin resistance vector only (Neo) were treated with 0.5 μg/ml Doxorubicin or 10 μg/ml Betulinic acid for 48 h (A) or 24 h (B and C). Cells transfected with a neomycin resistance vector only (Neo) were treated in the presence or absence of 50 μm BA or 60 μm zVAD-fmk. Nuclear apoptosis was determined by FACS analysis or propidium iodide-stained DNA content in intact cells (A) or in a CFS incubating isolated nuclei with mitochondria from cells treated with Doxo or betulinic acid (C). ΔΨm was determined by staining cells with the potential-sensitive fluorochrome DiOC6(3) (B).

[2] = tested on: FLICE, CPP32 and PARP in SH-EP neuroblastoma cells; experiment: Western blot of FLICE (caspase-8), CPP32 (caspase-3) and PARP cleavage; type: cell-based, human
Experimental: Cells were lysed for 30 min at 4° C. in PBS with 0.5% Triton X (Serva, Heidelberg, Germany) and 1 mM phenylmethylsulfonyl fluoride (Sigma, Deisenhofen, Germany) followed by high-speed centrifugation. Membrane proteins were eluted in buffer containing 0.1 M glycine. PH 3.0 and 1.5 M Tris, pH 8.8. Protein concentration was assayed using bicinchoninic acid (Pierce Chemical Co., Rockford, Ill.). Forty μg of protein per lane were separated by 12% SDS-PAGE and electroblotted onto nitrocellulose (Amersham, Braunschweig, Germany). Equal protein loading was controlled by Ponceau red staining of membranes. After blocking for 1 h in PBS supplemented with 2% BSA (Sigma) and 0.1% Tween 20 (Sigma), immunodetection of FLICE, CPP32, PARP, Bax, Bcl-x, Bcl-2, and p53 protein was done using mouse anti-FLICE monoclonal antibody C15 (1:5 dilution of hybridoma supernatant), mouse anti-CPP32 monoclonal antibody (1:1000, Transduction Laboratories, Lexington, KY), rabbit anti-PARP polyclonal antibody (1:10000, Enzyme Systems Products), rabbit anti-Bax polyclonal antibody (1:500, Calbiochem, Bad Soden, Germany), rabbit anti-Bcl-x polyclonal antibody (1:1000, Santa Cruz Biotechnology, Santa Cruz, Calif.), mouse anti-p53 monoclonal antibody (1:10000, Transduction Laboratories), and goat anti-mouse 1gG or goat antirabbit IgG (1:5000, Santa Cruz Biotechnology), ECL (Amersham) was used for detection.
FIG. 2B and FIG. 2C show the cleavage of FLICE, CPP32 and PARP. SH-EP neuroblastoma cells were treated with 10 μg/ml betulinic acid for indicated times or with 0.5 μg/ml doxorubicin for 24 h. Forty μg of protein per lane, isolated from cell lysates, were separated by 12% SDS-PAGE, Immunodetection of FLICE (FIG. 2B). CPP32 (FIG. 2C), and PARP (C) proteins was performed by mouse anti-FLICE monoclonal antibody, mouse anti-CPP32 monoclonal antibody, or rabbit anti-PARP polyclonal antibody and ECL.
SH-EP neuroblastoma cells were treated with 10 μg/ml betulinic acid for 24 h with or without 60 μM zVAD-frnk. Western blot analysis for FLICE and PARP cleavage was performed as described for FIG. 2B.
Cells were lysed for 30 mm at 4° C. in PBS with 0.5% Triton X (Serva, Heidelberg, Germany) and 1 mM PMSF (Sigma, Deisenhofen, Germany) followed by high-speed centrifugation. Membrane proteins were eluted in buffer containing 0.1 M glycine, pH 3.0 and 1.5 M Tris, pH 8.8. Protein concentration was assayed using bicinchoninic acid (Pierce, Rockford, Ill.). 40 μg protein per lane was separated by 12% or 15% SDS-PAGE and electroblotted onto nitrocellulose (Amersham, Braunschweig, Germany). Equal protein loading was controlled by Ponceau red staining of membranes. […]
For determination of mitochondrial membrane potential, cells (5×10^5/ml) were incubated with 3,3′-dihexyloxacarbocyanide iodide (DiOC6(3), 40 nM, Molecular Probes, Inc., Eugene, Oreg.) for 15 min at 37° C. and analyzed on a flow cytometer (FACScan) (Zamzarni et al., 1996 J. Exp. Med. 183:1533-44). […]

[3] = 0.5 μg/ml Doxo or 10 μg/ml Bet A, 24 h, FIG. 14A

| Structure (SMILES) | effect of CD95 blockage by F(ab′)2 anti-APO-1 on drug-induced apoptosis [1] | effect of inhibitor on drug-triggered nuclear fragmentation ([1]; 50 μM bongkrekic acid, doxorubicin or betulinic acid, FIG. 12A) | nuclear fragmentation in intact SHEP cells ([1]; 0.5 μg/ml doxorubicin or 10 μg/ml betulinic acid, 48 h, FIG. 12A) | caspase-3 (and PARP) processing in Bcl-2 or Bcl-XL overexpressing cells [2, 3] | caspase-8 processing in Bcl-2 or Bcl-XL overexpressing cells [2, 3] | caspase cleavage in cells sorted into ΔΨm^high and ΔΨm^low ([2]; 0.5 μg/ml Doxorubicin or 10 μg/ml Bet A, 18 h, FIG. 14B-2) | cleavage of FLICE ([2]; 10 μg/ml betulinic acid, 0.5 μg/ml doxorubicin 24 h, FIG. 2B) | effect of inhibitor on betulinic acid-induced apoptosis ([1]; 60 μM zVAD-fmk, 10 μg/ml betulinic acid 72 h, FIG. 2D) | effect of inhibitor on betulinic acid-induced nuclear fragmentation ([1]; 60 μM zVAD-fmk, FIG. 12A) | effect of inhibitor on doxorubicin-induced nuclear fragmentation ([1]; 60 μM zVAD-fmk, FIG. 12A) | effect of inhibitor on betulinic acid-induced cleavage of FLICE and PARP ([2]; 60 μM zVAD-fmk, 10 μg/ml betulinic acid 24 h, FIG. 2E) |
| --- | --- | --- | --- | --- | --- | --- | --- | --- | --- | --- | --- |
| CO[C@H](C/C=C\C=C\CC/C=C/C[C@H](C)/C=C/C(=C\C(=O)O)CC(=O)O)/C(C)=C\C=C(/C)C(=O)O [bongkrekic acid] | did not inhibit | inhibited drug-triggered nuclear fragmentation and ΔΨm loss | – | – | – | – | – | – | – | – | – |
| COc1cccc2c1C(=O)c1c(O)c3c(c(O)c1C2=O)C[C@@](O)(C(=O)CO)C[C@@H]3O[C@H]1C[C@H](N)[C@H](O)[C@H](C)O1 [doxorubicin] | significantly blocked; also recorded: markedly reduced | – | induced loss of ΔΨm and nuclear fragmentation | inhibited in Bcl-2 and Bcl-XL transfected cells | cleaved into p43 and p41 intermediates and the active p18 subunit, regardless of Bcl-2 or Bcl-XL overexpression | CD95-L induction and cleavage of caspase-8 was found in both ΔΨm^high and ΔΨm^low cells | stimulated FLICE cleavage | – | – | – | – |
| COC(=O)C[C@H](NC(=O)[C@H](C)NC(=O)[C@@H](NC(=O)OCc1ccccc1)C(C)C)C(=O)CF [zVAD-fmk, benzyloxycarbonyl-Val-Ala-Asp-Fluoromethylketone] (Cbz-Val-Ala-Asp(OMe)-CH2F) | – | – | – | – | – | – | – | almost completely abrogated apoptosis | only affected the betulinic acid-induced nuclear fragmentation | both inhibited | inhibited cleavage of FLICE and PARP |
